The values that follow come from PMC9630929 (Journal of medicinal chemistry, 2022).

Data set [1] concerns SMARCA2B bromodomain. As to conditions: cited from earlier work.
The test system of data set [2] is PC3 cells. The settings on record: 0.1, 1, 10 μM; compound 7 up to 100 μM.
For data set [3], the system named is SMARCA2 bromodomain. The settings on record: DSF; cited from earlier work.
In data set [4] the test system is PBRM1-BD5. The settings on record: cited from earlier work.
Data set [5] has as its system SMARCA2 bromodomain. As to conditions: cited from earlier work.
Data set [6] relates to LNCaP cells expressing shRNA against PBRM1 or vector control. Type of data set: cell-based, human. The settings on record: 10 μM, 5 days.
Data set [7] addresses SMARCA2B bromodomain (Homo sapiens, UniProt P51531). Format: binding. As to conditions: DSF, 100 μM inhibitor, 10 μM bromodomain.
The nature of data set [8]: Solubility observed in the AlphaScreen assay. Format: physicochemical. The settings on record: at tested concentrations. Background: Bead proximity is the source of the signal in Alpha formats.
Data set [9] deals with other tested bromodomains. The settings on record: DSF, 100 μM inhibitor, 10 μM bromodomain. On the technique in general: DSF heats the sample and reads unfolding from a dye or from intrinsic fluorescence.

Sequence of SMARCA2B bromodomain (Homo sapiens, UniProt P51531) (P51531 1373-1493 isoform P51531-2 limits assumed): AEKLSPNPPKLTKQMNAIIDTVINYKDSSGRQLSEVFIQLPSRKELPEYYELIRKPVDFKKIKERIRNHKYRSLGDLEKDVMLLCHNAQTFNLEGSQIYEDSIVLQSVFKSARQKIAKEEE

For `CCC(CC)C1CC12CCn1c2nc(=O)c2c(Cl)cccc21` (centres unmarked) [LM146], the “binding toward SMARCA2B bromodomain” value in data set [1] is “low micromolar affinity”. Take `CCC(/C=C1\CCn2c1nc(=O)c1c(Cl)cccc12)CC` [Compound 7, (E)-6-Chloro-3-(2-ethylbutylidene)-2,3-dihydropyrrolo[1,2-a]quinazolin-5(1H)-one]: in [2], the “growth inhibition of PC3 cells” value is “more substantial inhibition”. For the same molecule, in [3], the “ΔTm SMARCA2 bromodomain” value is greater than 2.5 °C. Turning to `CN(C)/C=C1\CCn2c1nc(=O)c1c(Cl)cccc12` [Compound 2, (E)-6-Chloro-3-((dimethylamino)methylene)-2,3-dihydropyrrolo[1,2-a]quinazolin-5(1H)-one], the “binding toward PBRM1-BD5” value in data set [4] is “nanomolar binding”. Moreover, in data set [5], the “binding toward SMARCA2 bromodomain” value is listed as “nanomolar binding”.

With `Cc1cccc(C2NC(=O)c3c(Cl)cccc3N2)c1` (centres unmarked) [Compound 16, 5-Chloro-2-(3-methylphenyl)-2,3-dihydroquinazolin-4(1H)-one], in data set [2], the “growth inhibition of PC3 cells” value is reported as “do not inhibit the growth”. The “effect on LNCaP viability with native PBRM1 vs PBRM1 knockdown” value in data set [6] is on record as “more significant effect on LNCaP viability in cells with native PBRM1 levels than in cells with PBRM1 knockdown”. In data set [7], the “SMARCA2B ΔTm” value is reported as “did not exhibit detectable thermal stabilization”. On to `Cc1cc(C)c(C2NC(=O)c3c(Cl)cccc3N2)c(C)c1` (centres unmarked) [Compound 22, 5-Chloro-2-(2,4,6-trimethylphenyl)-2,3-dihydroquinazolin-4(1H)-one], for which the “solubility in the AlphaScreen assay” value in data set [8] is “solubility issues”. In the case of `Cc1ccccc1C1NC(=O)c2c(Cl)cccc2N1` (centres unmarked) [Compound 15, 5-Chloro-2-(2-methylphenyl)-2,3-dihydroquinazolin-4(1H)-one], the “SMARCA2B ΔTm” value in data set [7] is reported as “did not exhibit detectable thermal stabilization”. For the same molecule, the “thermal stabilization of the other tested bromodomains (ΔTm)” value in data set [9] was less than 1 °C. As for `Cc1cccc(C2NC(=O)c3c(Br)cccc3N2)c1` (centres unmarked) [Compound 34, 5-Bromo-2-(3-methylphenyl)-2,3-dihydroquinazolin-4(1H)-one], in data set [2], the “growth inhibition of PC3 cells” value is “do not inhibit the growth”. `O=C(/C=C/N1C[C@H]2C[C@@H]1CN2c1ccccn1)c1ccccc1O` [PFI-3]: the “binding toward PBRM1-BD5” value in [4] is on record as “nanomolar binding”. Also, in data set [5], the “binding toward SMARCA2 bromodomain” value is listed as “nanomolar binding”.
